Assay [1] has as its target T1, 4-galactosyl-N-acetylglucosaminide 3-alpha-L-fucosyltransferase FUT6 (Homo sapiens, UniProt P51993).
T1 sequence (P51993 whole entry): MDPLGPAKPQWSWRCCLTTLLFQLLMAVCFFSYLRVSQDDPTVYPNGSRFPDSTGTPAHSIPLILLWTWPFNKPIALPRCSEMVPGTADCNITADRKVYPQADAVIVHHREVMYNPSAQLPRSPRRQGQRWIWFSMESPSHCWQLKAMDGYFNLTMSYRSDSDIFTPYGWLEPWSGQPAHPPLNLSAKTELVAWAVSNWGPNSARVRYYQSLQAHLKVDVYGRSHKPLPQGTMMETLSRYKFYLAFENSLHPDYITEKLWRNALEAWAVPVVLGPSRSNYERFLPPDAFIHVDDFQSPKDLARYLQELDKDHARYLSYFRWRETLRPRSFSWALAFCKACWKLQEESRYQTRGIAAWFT
The assay can be described thus: Inhibitory concentration required against Fucosyltransferase 6.

Assay [2] concerns the target T1, 4-galactosyl-N-acetylglucosaminide 3-alpha-L-fucosyltransferase FUT6. The experiment in a line: Compound was tested for binding affinity against Fucosyltransferase 6.

For orientation: IC50 means the midpoint of a concentration-inhibition curve. As a reminder, the Ki is the dissociation constant of the complex between target and ligand, obtained from inhibition or displacement. High values mean a looser hold on the target, low ones a stronger hold on the target. For `Nc1nc2c(ncn2C2O[C@H](COP(=O)(O)OP(=O)(O)OCc3cn(CCCC(=O)NC(Cc4ccccc4)c4ccccc4)nn3)[C@@H](O)[C@H]2O)c(=O)[nH]1` (stereo not given in full), half-maximal inhibition in assay [1] (IC50) required 3960 nM. This molecule also registered a Ki in assay [2] of 1070 nM.

`Nc1nc2c(ncn2C2O[C@H](COP(=O)(O)OP(=O)(O)OCc3cn(CCC(=O)NCc4cccc5ccccc45)nn3)[C@@H](O)[C@H]2O)c(=O)[nH]1` (stereo not given in full) came in with an IC50 in assay [1] of 3340 nM. Further, affinity in assay [2] was put at a Ki of 901 nM.

`Nc1nc(O)c2ncn(C3O[C@H](COP(=O)(O)OP(=O)(O)OCc4cn(CCCCC(=O)NC(Cc5ccccc5)c5ccccc5)nn4)[C@@H](O)[C@H]3O)c2n1` (stereo not given in full) came in with an IC50 in assay [1] of 1390 nM. The molecule also came in with a Ki in assay [2] of 376 nM.

For `Nc1nc(O)c2ncn(C3O[C@H](COP(=O)(O)OP(=O)(O)OCc4cn(CC(=O)NC(Cc5ccccc5)c5ccccc5)nn4)[C@@H](O)[C@H]3O)c2n1` (stereo not given in full), in assay [1], the IC50 worked out at 1620 nM. Affinity in assay [2] was put at a Ki of 437 nM.

Consider `Nc1nc(O)c2ncn(C3O[C@H](COP(=O)(O)OP(=O)(O)OCc4cn(CCCCC(=O)NC5=CC6C(=O)c7ccccc7C(=O)C6C=C5)nn4)[C@@H](O)[C@H]3O)c2n1` (stereo not given in full), for which, in assay [1], inhibition was half-maximal at 1890 nM (IC50). The molecule also registered a Ki in assay [2] of 511 nM.

For the origin of these results see ChEMBL document CHEMBL1146644, “High-throughput identification of fucosyltransferase inhibitors using carbohydrate microarrays” (Bioorg Med Chem Lett, 2004).
